Earlier results, collected in patent publication US20100029771A1, “TREATMENT OF ADDICTIVE DISORDERS” (priority 2008, published 2010).

Legend:
[1] = limited to the first months of treatment
[2] = clinical trials
[3] = alcoholic subjects; each drug given individually

O=C1CC[C@@]2(O)[C@H]3Cc4ccc(O)c5c4[C@@]2(CCN3CC2CC2)[C@H]1O5 [naltrexone]
duration of benefits on alcohol craving and intake [1]: ≤ 3 months

NCC(CC(=O)O)c1ccc(Cl)cc1 (stereo not shown) [baclofen, 4-amino-3-(4-chlorophenyl)butanoic acid]
effect on anxiety ([2]; alcoholic and non-alcoholic subjects): reduce anxiety
side effect [2]: somnolence being an overwhelming side effect
effect on craving [3]: reduce craving
